According to patent publication US20250177398A1, “CARBONIC ANHYDRASE ENZYMES FOR REGULATING MAST CELL HEMATOPOIESIS AND TYPE 2 INFLAMMATION” (RUTGERS, THE STATE UNIVERSITY OF NEW JERSEY, priority 2015, published 2025):

Experiments:
[1] = system: bone marrow-resident progenitor cells (mast cell and basophil development); test: Murine mast cell and basophil developmental assay: BM progenitor cells cultured with IL-3; assay type: cell-based, mouse; settings: BM cells + IL-3 10 ng/mL, 30 μg/mL MZ
Procedure: FIGS. 6A-6B. Bone marrow-resident progenitor cells were cultured in media, media treated with IL-3 (10 ng/ml), media treated with IL-3 and compound 8 (25 ng/ml) (FIG. 6A) or, media treated with IL-3 and compound 16 (25, 50, or 75 ng/ml) (FIG. 6B). On day 7 post-culture mast cells were identified by flow cytometric analysis. Results are representative of 2 independent experiments with at least 4 technical replicated per experiment. Statistical analysis was performed using a Student's t-test. (*,p<0.05) (***,p<0.001).
BM cells were isolated from the femur of WT mice and cultured in the presence of 10 ng/mL of IL-3 and vehicle (1:10 DMSO to RPMI complete media) or 30 μg/mL MZ. Fresh IL-3 with either vehicle or MZ were added daily, and mast cell and basophil populations were evaluated on day 7 post-culture.
Further, it is illustrated that genetically editing Car1 in stem cells via CRISPR/Cas9 technology decreases their capacity to develop into mature mast cells. […] However, whether inhibitors that selectively target Car1 can be used to inhibit mast cell development was unknown. […] Therefore, it was sought to be determined whether compound 8 and/or compound 16 could inhibit mast cell development from progenitor cell populations. To test this, the mast cell developmental assay was employed and bone marrow-resident progenitor cells were treated with IL-3 to promote mast cell development.

[2] = system: BM cells (macrophage development); test: Murine macrophage cultures: BM cells with L-cell supernatant; assay type: cell-based, mouse; settings: 30% L-cell supernatant, 30 μg/mL MZ, day 5 (FIG. 1G)
Procedure: BM cells were isolated from the femur of WT mice and cultured in the presence of 30% L-cell supernatant and vehicle (1:10 DMSO to RPMI complete media) or 30 μg/mL MZ. Fresh macrophage medium with either vehicle or MZ was added daily and macrophage cell populations were evaluated on day 5 post-culture

Aspergillus fumigatus = Aspergillus fumigatus (FLARE conidia) lung infection; assay type: in vivo, mouse; settings: A. fumigatus-infected mice, 2-3 mg MZ i.p. daily, 72 hours post-infection (FIGS. 3H-3J)
Procedure: A. fumigatus strain Af293 was grown on glucose minimal media (GMM) agar plates for 3 days or Sabouraud dextrose agar (SDA) for 7-10 days at 37° C., respectively. Conidia were harvested by adding 0.01% Tween 80 to plates and gently scraping conidia from the plates using a cell scraper. Conidia were then filtered through sterile Miracloth, were washed and resuspended in phosphate buffered saline (PBS), and counted on a hemocytometer. FLARE conidia were prepared as previously described (Espinosa, et al., 2014. PLOS Pathog 10:e1003940). Mice were challenged with 5×10^7 A. fumigatus conidia intratracheally (i.t.) as described previously (Espinosa, et al., 2014. PLOS Pathog 10:e1003940). Mice were treated with vehicle (1:5 DMSO to PBS) or 2-3 mg of MZ i.p. daily and sacrificed 72 hours post-infection. Bronchoalveolar lavage (BAL) fluid was collected by washing the lungs with 2 mL of PBS containing 0.05M EDTA. After collection of the BAL fluid, lung samples were minced in RPMI containing 100 units/mL of collagenase (Gibco) and incubated at 37° C. for 60 minutes, disrupted and filtered. Subsequently, red blood cells were lysed using a Tris ammonium chloride solution. Analysis of neutrophils was conducted using a panel of cell surface markers: CD45, CD11b, and Ly6G as previously described (Espinosa, et al., 2014. PLOS Pathog 10:e1003940). […]

[3] = system: human CD34+ progenitor cells (mast cell development); test: Human mast cell cultures from blood CD34+ progenitor cells; assay type: cell-based; settings: human CD34+ cells with SCF, consistent across 5 donors
Description: Blood from healthy human donors was obtained from the New York Blood Center under protocols approved by the Rutgers Institutional Review Boards (IRB). Peripheral blood cells were isolated using a Ficoll gradient. CD34^+ cells were purified using a CD34 MicroBead isolation kit according to the manufacturer's protocol (Miltenyi Biotec, 130-048-702). 25-50×10^3 CD34^+ cells were placed in methocult ([…]) supplemented with stem cell factor (SCF), IL-6 and IL-3 as described previously (Saito, et al., 2006. Nat Protoc 1:2178-2183). Mast cell populations were evaluated on day 14 post-culture.

[4] = system: Aspergillus fumigatus-induced allergic airway inflammation; test: Aspergillus fumigatus extract-induced allergic asthma; assay type: in vivo, mouse; settings: mice challenged intranasally with A. fumigatus extract for 3 weeks, MZ (FIG. 5)
Procedure: Aspergillus-induced allergic asthma. Mice were challenged with Aspergillus fumigatus allergic extract as previously described (Mathias, C. B., et al., J Immunol 182, 2416-2424 (2009)). Briefly, mice were challenged (intranasally) 3 times a week for 3 weeks with 50 μl of aqueous Aspergillus fumigatus Allergenic Extract (Greer laboratories: item # M3). After 3 weeks mice were sacrificed and BAL and lungs were processed as previously described (Espinosa, V., et al., PLOS Pathog 10, e1003940 (2014)).

CC(=O)/N=c1/sc(S(N)(=O)=O)nn1C [MZ, methazolamide]
basophil numbers ([1]; day 7): decreased
percentages of basophils ([1]; day 7 (FIG. 1F)): significantly increased
mast cell populations compared to controls ([1]; day 7 post-culture (FIG. 1E)): significantly reduced
macrophage development [2]: no effect
fungal clearance (Aspergillus fumigatus): increased
neutrophil responses (Aspergillus fumigatus): increased
percentages of mast cells ([3]; IL-6, IL-3, day 14 (FIGS. 4L-4M)): significantly reduced
total numbers of mast cells ([3]; IL-6, IL-3, day 14 (FIGS. 4L-4N)): significantly reduced
eosinophilic airway inflammation (eosinophils in BAL and lung) [4]: significantly reduced
pulmonary mast cell responses [4]: significantly reduced
